SMILES strings stand for the structures.

T1 sequence (Q9Y5Y9 whole entry): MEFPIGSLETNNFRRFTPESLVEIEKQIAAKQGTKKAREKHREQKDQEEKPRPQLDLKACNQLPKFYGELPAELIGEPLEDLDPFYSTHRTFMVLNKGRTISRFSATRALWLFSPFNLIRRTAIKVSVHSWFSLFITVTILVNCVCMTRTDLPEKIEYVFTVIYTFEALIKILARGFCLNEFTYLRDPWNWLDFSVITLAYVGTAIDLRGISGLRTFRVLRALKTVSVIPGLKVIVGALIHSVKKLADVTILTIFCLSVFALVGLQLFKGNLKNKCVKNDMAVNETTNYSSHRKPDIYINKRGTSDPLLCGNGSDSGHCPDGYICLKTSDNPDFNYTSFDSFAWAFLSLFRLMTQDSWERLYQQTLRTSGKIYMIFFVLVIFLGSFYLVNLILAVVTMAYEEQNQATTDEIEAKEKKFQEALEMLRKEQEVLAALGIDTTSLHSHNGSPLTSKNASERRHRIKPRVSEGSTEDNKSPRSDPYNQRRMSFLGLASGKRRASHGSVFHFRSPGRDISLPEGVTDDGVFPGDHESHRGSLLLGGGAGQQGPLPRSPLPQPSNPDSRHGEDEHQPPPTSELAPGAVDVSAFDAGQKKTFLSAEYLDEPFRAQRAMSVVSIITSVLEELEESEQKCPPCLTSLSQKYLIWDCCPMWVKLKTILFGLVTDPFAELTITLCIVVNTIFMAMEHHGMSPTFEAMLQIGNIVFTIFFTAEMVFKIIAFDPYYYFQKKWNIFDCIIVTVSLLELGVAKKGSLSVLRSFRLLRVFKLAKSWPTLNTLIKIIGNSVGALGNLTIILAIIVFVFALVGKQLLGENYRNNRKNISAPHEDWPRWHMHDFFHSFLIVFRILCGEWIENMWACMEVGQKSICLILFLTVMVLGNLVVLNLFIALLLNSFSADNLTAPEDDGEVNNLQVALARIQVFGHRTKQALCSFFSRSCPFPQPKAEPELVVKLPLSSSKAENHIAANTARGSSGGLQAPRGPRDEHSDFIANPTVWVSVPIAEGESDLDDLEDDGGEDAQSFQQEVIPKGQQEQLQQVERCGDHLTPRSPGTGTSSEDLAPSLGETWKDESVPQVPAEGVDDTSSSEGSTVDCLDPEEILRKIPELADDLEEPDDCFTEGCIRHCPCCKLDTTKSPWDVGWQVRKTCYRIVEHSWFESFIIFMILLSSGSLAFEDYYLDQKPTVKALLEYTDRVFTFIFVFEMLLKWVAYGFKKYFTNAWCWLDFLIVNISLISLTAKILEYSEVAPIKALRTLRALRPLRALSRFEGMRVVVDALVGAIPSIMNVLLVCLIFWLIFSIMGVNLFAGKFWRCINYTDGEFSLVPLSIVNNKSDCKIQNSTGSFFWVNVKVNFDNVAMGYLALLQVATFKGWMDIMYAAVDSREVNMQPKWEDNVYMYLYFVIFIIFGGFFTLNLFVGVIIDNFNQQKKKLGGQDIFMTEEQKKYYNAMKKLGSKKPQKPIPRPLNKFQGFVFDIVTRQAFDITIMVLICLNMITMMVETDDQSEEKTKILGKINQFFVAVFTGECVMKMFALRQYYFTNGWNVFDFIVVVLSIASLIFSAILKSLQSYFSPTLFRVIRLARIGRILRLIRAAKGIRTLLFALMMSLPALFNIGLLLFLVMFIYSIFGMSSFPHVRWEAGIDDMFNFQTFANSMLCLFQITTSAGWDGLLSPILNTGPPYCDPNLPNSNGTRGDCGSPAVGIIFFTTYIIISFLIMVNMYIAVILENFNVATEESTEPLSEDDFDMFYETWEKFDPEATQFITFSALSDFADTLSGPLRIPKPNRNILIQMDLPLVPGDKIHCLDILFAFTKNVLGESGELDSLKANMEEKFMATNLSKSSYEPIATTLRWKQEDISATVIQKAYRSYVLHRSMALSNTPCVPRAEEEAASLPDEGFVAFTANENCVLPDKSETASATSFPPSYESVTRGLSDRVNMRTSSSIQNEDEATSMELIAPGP
T1 sequence (Q07699 19-218 partner): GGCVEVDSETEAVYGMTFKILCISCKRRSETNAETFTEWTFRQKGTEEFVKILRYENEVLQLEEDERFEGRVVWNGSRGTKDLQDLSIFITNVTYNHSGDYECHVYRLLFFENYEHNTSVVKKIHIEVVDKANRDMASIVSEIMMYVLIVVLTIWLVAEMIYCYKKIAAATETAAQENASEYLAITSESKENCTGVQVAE

One assay addresses T1, human Nav1.8 (Homo sapiens, UniProt Q9Y5Y9).
T1 construct: expressed in transfected cells; host or cells: HEK293 (HEK293-Nav1.8)
Nature of the assay: Nav1.8 sodium channels assay, QPatch 48 HTX electrophysiology in HEK293-Nav1.8 cells. It counts as cell-based. To be noted: Table 1; HEK293-Nav1.8, QPatch 48 HTX, half inactivation state voltage protocol (V1/2); single run or average of two or more runs; read-out: Nav1.8 pIC50 (converted). The method in brief:
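HEK293 cells co-expressing human Nav1.8, Navβ1 and TREK1 were voltage-clamped on QPatch 48 HTX. The V1/2 protocol ran at 0.07 Hz: hold −100 mV, 20 ms to 0 mV, 8 s at −46 mV, 20 ms at −100 mV, then 20 ms at 0 mV (P2). P2 current was fitted over 6-8 concentrations for IC50, with vehicle wells used to correct for run-down.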
Background: The patch-clamp technique gives a direct electrical read-out from membranes.
Turning to `Cc1cc(F)ccc1N1c2cc(C(F)(F)F)ccc2C(=O)N(c2ccc(=O)[nH]c2)C1C` (stereo not drawn) [drawing 275, 1-(4-fluoro-2-methylphenyl)-2-methyl-3-(6-oxo-1,6-dihydropyridin-3-yl)-7-(trifluoromethyl)-2,3-dihydroquinazolin-4(1H)-one], the IC50 is 1260 nM. Same read-out and setting: the same measure for `Cc1cc(F)ccc1N1CN(c2ccc(=O)[nH]c2C)C(=O)c2ccc(C(F)(F)F)nc21` [drawing 288, 1-(4-fluoro-2-methylphenyl)-3-(2-methyl-6-oxo-1,6-dihydropyridin-3-yl)-7-(trifluoromethyl)-2,3-dihydropyrido[2,3-d]pyrimidin-4(1H)-one]: 251 nM.

The same assay, now with this note: at least one set of experimental runs; read-out: average pIC50 value against Nav1.8 (converted).
In the case of `CCc1[nH]c(=O)ccc1N1CN(c2ccc(F)cc2C)c2cc(OC(F)(F)F)ccc2C1=O` [Example 190, 3-(2-ethyl-6-oxo-1,6-dihydropyridin-3-yl)-1-(4-fluoro-2-methylphenyl)-7-(trifluoromethoxy)-2,3-dihydroquinazolin-4(1H)-one], the IC50 is at most 100 nM. With `CCc1cc(F)ccc1N1CN(c2ccc(=O)[nH]c2C)C(=O)c2ccc(C(F)(F)F)cc21` [Example 184, 1-(2-ethyl-4-fluorophenyl)-3-(2-methyl-6-oxo-1,6-dihydropyridin-3-yl)-7-(trifluoromethyl)-2,3-dihydroquinazolin-4(1H)-one], the IC50 is at most 100 nM. On the same count and under the same terms, the same measure for `Cc1cc(F)ccc1N1CN(c2ccc(C(N)=O)[n+]([O-])c2)C(=O)c2c1ccc(Cl)c2F` [Example 248, 2-carbamoyl-5-(6-chloro-5-fluoro-1-(4-fluoro-2-methylphenyl)-4-oxo-1,4-dihydroquinazolin-3(2H)-yl)pyridine 1-oxide]: 794 to 7940 nM; for `O=C1c2ccc(C(F)(F)F)cc2N(c2ccc(F)cc2OCCO)CN1c1ccc(=O)[nH]c1` [Example 41, 1-(4-fluoro-2-(2-hydroxyeth-oxy)phenyl)-3-(6-oxo-1,6-dihydropyridin-3-yl)-7-(trifluoromethyl)-2,3-dihydroquinazolin-4(1H)-one]: 794 to 7940 nM. On the same count and under the same terms, next, `Cc1[nH]c(=O)ccc1N1CN(c2cccc(C(F)(F)F)c2C)c2ncc(C(F)(F)F)cc2C1=O` [Example 174, 1-(2-methyl-3-(trifluoromethyl)phenyl)-3-(2-methyl-6-oxo-1,6-dihydropyridin-3-yl)-6-(trifluoromethyl)-2,3-dihydropyrido[2,3-d]pyrimidin-4(1H)-one]: 126 to 631 nM; `Cc1cc(F)ccc1N1CN(c2ccc(=O)[nH]c2C)C(=O)c2cc(Cl)c(C)nc21` [Example 72, 6-chloro-1-(4-fluoro-2-methylphenyl)-7-methyl-3-(2-methyl-6-oxo-1,6-dihydropyridin-3-yl)-2,3-dihydropyrido[2,3-d]pyrimidin-4(1H)-one]: at most 100 nM; `COc1nc2c(cc1F)C(=O)N(c1ccc(=O)[nH]c1C)CN2c1ccc(F)cc1C` [Example 165, 6-fluoro-1-(4-fluoro-2-methylphenyl)-7-methoxy-3-(2-methyl-6-oxo-1,6-dihydropyridin-3-yl)-2,3-dihydropyrido[2,3-d]pyrimidin-4(1H)-one]: 126 to 631 nM. As for `CC(=O)Nc1ccc(N2CN(c3ccc(F)cc3C)c3cc(C(F)(F)F)ccc3C2=O)cc1` [Example 6, N-(4-(1-(4-fluoro-2-methylphenyl)-4-oxo-7-(trifluoromethyl)-1,4-dihydroquinazolin-3(2H)-yl)phenyl)aceta-mide], the IC50 was 794 to 7940 nM.

As to `Cc1[nH]c(=O)ccc1N1CN(c2ccc(F)cc2F)c2cc(C(F)(F)F)ccc2C1=O` [Example 155, 1-(2,4-difluorophenyl)-3-(2-methyl-6-oxo-1,6-dihydropyridin-3-yl)-7-(trifluoromethyl)-2,3-dihydroquinazolin-4(1H)-one], the IC50 is 126 to 631 nM. Regarding `Cc1[nH]c(=O)ccc1N1CN([C@H]2CC[C@H](F)C2)c2cc(C(F)(F)F)ccc2C1=O` (racemic) [Example 208, 1-((1S,3S)-3-fluorocyclopentyl)-3-(2-methyl-6-oxo-1,6-dihydropyridin-3-yl)-7-(trifluoromethyl)-2,3-dihydroquinazolin-4(1H)-one and 1-((1R,3R)-3-fluorocyclopentyl)-3-(2-methyl-6-oxo-1,6-dihydropyridin-3-yl)-7-(trifluoromethyl)-2.3-dihydroquinazolin-4(1H)-one], the IC50 is 794 to 7940 nM.

In the case of `Cc1cc(F)ccc1-n1c(=O)n(-c2ccc(=O)[nH]c2)c(=O)c2ccc(C(F)(F)F)cc21` [Example 186, 1-(4-fluoro-2-methylphenyl)-3-(6-oxo-1,6-dihydropyridin-3-yl)-7-(trifluoromethyl) quinazoline-2,4(1H,3H)-dione], the IC50 is 794 to 7940 nM. For the molecule `CCOc1cc(F)ccc1N1CN(c2ccc(=O)[nH]c2C)C(=O)c2cc(Cl)ccc21` [Example 68, 6-chloro-1-(2-ethoxy-4-fluorophenyl)-3-(2-methyl-6-oxo-1,6-dihydropyridin-3-yl)-2,3-dihydroquinazolin-4(1H)-one], the IC50 is 126 to 631 nM. Still for that read-out and setting: next, `Cc1ccccc1N1CN(c2ccc(=O)[nH]c2C)C(=O)c2ccc(C(F)(F)F)cc21` [Example 87, 3-(2-methyl-6-oxo-1,6-dihydropyridin-3-yl)-1-(o-tolyl)-7-(trifluoromethyl)-2,3-dihydroquinazolin-4(1H)-one]: at most 100 nM. For the molecule `Cc1cc(C(F)(F)F)ccc1N1CN(c2ccc(=O)[nH]c2C)C(=O)c2cc(C(F)(F)F)cnc21` [Example 195, 1-(2-methyl-4-(trifluoromethyl)phenyl)-3-(2-methyl-6-oxo-1,6-dihydropyridin-3-yl)-6-(trifluoromethyl)-2,3-dihydropyrido[2,3-d]pyrimidin-4(1H)-one], the IC50 is 794 to 7940 nM. For `Cc1cc(C#N)ccc1N1CN(c2ccc(=O)[nH]c2C)C(=O)c2cc(Cl)ccc21` [Example 117, 4-(6-chloro-3-(2-methyl-6-oxo-1,6-dihydropyridin-3-yl)-4-oxo-3,4-dihydroquinazolin-1(2H)-yl)-3-methylbenzonitrile], the IC50 was at most 100 nM.

For `Cc1cc(OC(F)(F)F)ccc1N1CN(c2ccc(=O)[nH]c2)C(=O)c2cc(C(F)(F)F)cnc21` [Example 119, 1-(2-methyl-4-(trifluorometh-oxy)phenyl)-3-(6-oxo-1,6-dihydropyridin-3-yl)-6-(trifluoromethyl)-2,3-dihydropyrido[2,3-d]pyrimidin-4(1H)-one], the IC50 was 126 to 631 nM.

Turning to `CNc1ccc2c(c1)N(c1ccc(F)cc1C)CN(c1ccc(=O)[nH]c1C)C2=O` [Example 67, 1-(4-fluoro-2-methylphenyl)-3-(2-methyl-6-oxo-1,6-dihydropyridin-3-yl)-7-(methylamino)-2,3-dihydroquinazolin-4(1H)-one], the IC50 is 126 to 631 nM.

With `O=C1c2ccc(C(F)(F)F)cc2N(c2ccc(F)cc2F)CN1c1ccc(=O)[nH]c1` [Example 42, 1-(2,4-difluorophenyl)-3-(6-oxo-1,6-dihydropyridin-3-yl)-7-(trifluoromethyl)-2,3-dihydroquinazolin-4(1H)-one], the IC50 is 794 to 7940 nM.

Regarding `Cc1cc(F)ccc1N1CN(c2ccc(=O)[nH]c2C)C(=O)c2cc(C#N)c(C(F)(F)F)cc21` [Example 166, 1-(4-fluoro-2-methylphenyl)-3-(2-methyl-6-oxo-1,6-dihydropyridin-3-yl)-4-oxo-7-(trifluoromethyl)-1,2,3,4-tetra-hydroquinazoline-6-carbonitrile], the IC50 is at most 100 nM.

The values above are taken from patent US20230103791A1 (GLAXOSMITHKLINE INTELLECTUAL PROPERTY DEVELOPMENT LIMITED, priority 2019, published 2023).
